Among the data in a melting point compilation (Tetko et al.; mined from patent text by program, amines drawn as free bases though some values may be those of a salt) are melting point values, retold here.

Some results are limits rather than exact numbers.

`CCOc1ccc2c(c1)C(C)(c1ccccc1Cl)C(=O)N2S(=O)(=O)c1ccc(C(=O)NC(C)(C)C)cc1` (centres undefined): the melting point (in general, the temperature, or range, at which the solid turns liquid) was 157 °C. To `Cc1c(C)c2c(c(C)c1NC(=O)c1cccs1)C(c1ccc(C(C)C)cc1)C(C)(C)O2` (centres undefined) belongs 222 to 224 °C; to `N#Cc1ccc(OCc2ccc(F)cc2)cc1`, 82 to 83 °C; to `Cn1nc(N)c2c(=O)n3c(nc21)SCC3`, 280 to 283 °C. With `Nc1ccc2ccc(-c3cccc(F)c3)nc2n1` the figure was 160 °C. In the case of `NC(=O)C1N=C(c2ccccc2)c2cc(Cl)ccc2NC1=O` (centres undefined), the melting point was 255 to 256 °C. With `C=C(C)C1CCC(C)(C(=O)O)C1=C` (centres undefined) the figure was 66.5 to 68 °C; with `CCC1c2ccccc2-c2cc(-c3cccc(O)c3)ccc2N1S(=O)(=O)c1ccc(O)cc1` (centres undefined), 105 °C; with `COC(=O)c1ccc(-c2ccccc2)cc1S(=O)(=O)NC(=O)Nc1nc(C)nc(OC)n1`, 198 to 200 °C. Compound `CCOC(=O)CCCOc1cccc(-c2n[nH]c3c2Cc2ccccc2-3)c1` showed a melting point of 142 to 148 °C. With `O=c1cc(-c2ccncc2)nc2n1CCCCC2` the figure was 148 to 150 °C; with `CNC(=O)c1cc(-c2ccc(OC)cc2)nn(CC=Cc2ccccc2)c1=O`, 160 to 161 °C; with `CCCc1ccc(-c2nnc(SC)nn2)cc1`, 78 to 79 °C. `Cc1ccc2c(c1)N=C(Cl)c1cscc1O2` displayed a melting point of 208 to 209 °C. To `Ic1nnnn1-c1ccccc1` belongs 123 to 129 °C; to `CNC(=C[N+](=O)[O-])NCCSCc1ccccn1`, 112 to 113 °C. The compound `COc1cccc(OC)c1N(COCC(C)C)C(=O)CCl` showed a melting point of 107 to 110 °C. With `O=C1c2ccccc2C(O)(C(F)(F)F)c2ccccc21` the figure was 153 to 155 °C. To `O=C(Nc1ccccn1)c1cn(-c2ccccc2)c2ccccc2c1=O` belongs 238 to 240 °C. In turn, `CC(C)(C)OC(=O)N1CCN(c2ccc3nc(-c4cccs4)cn3n2)CC1` came in with a melting point of 165 to 167 °C. With `CCc1cc2c(Sc3ccc(C)cc3)ncnc2s1` the figure was 56 to 58 °C; with `Cc1ccc(CNc2ncnc3c(N4CCOCC4)nc(N4CCC(N(C)C)CC4)nc23)cc1`, 142 to 144 °C; with `N#CC(c1ccc(Cl)c(Cl)c1)c1c(Cl)cc(NN)cc1Cl` (centres undefined), 183 to 185 °C. To `O=C(Nc1ccc2cccnc2c1)c1cc2cc(F)ccc2n1Cc1cccc(F)c1` belongs 222 to 223 °C; to `O=C(NCCCc1ccncc1)N(CCCCC(F)(F)F)CCC12CC3CC(CC(C3)C1)C2`, 117 to 119 °C; to `CCc1cn2ccccc2c1S(=O)(=O)c1cc(C)c(OS(=O)(=O)c2ccc(C)cc2)c(C)c1`, 161 °C. To `O=C(OCC12CCCN(CCC1)C2)c1c[nH]c2ccccc12` belongs 207 to 209 °C. `Cc1ncnc(Nc2ccc(C(=O)CCC3CCN(Cc4ccccc4)CC3)cc2)c1C` had a melting point of 168 to 170 °C.

For `Cn1cc(-c2cccc(N3Cc4cc(C(C)(C)C)ccc4C3=O)c2CO)cc(Nc2cc(C3CC3)n[nH]2)c1=O`, the melting point is 178 to 180 °C. `NC(=O)CCCCCOc1cc2ccc(-c3ccc(C(=O)O)cc3)cc2cc1C12CC3CC(CC(C3)C1)C2` showed a melting point of 209 to 210 °C. In the case of `CC(=O)Nc1ccc(OCc2nc3ccccc3s2)cc1`, the melting point lay in the range of 168 to 170 °C. Compound `CN(CCCSCCCC(F)(F)C(F)(F)F)CCOc1ccc(C2=C(c3ccccc3)CCCc3cc(O)ccc32)cc1` yielded a melting point of 40 to 42 °C. To `Nc1nc2cccnc2c2c1ncn2CC1(O)CCOCC1` belongs 225 to 226 °C. `CC(=O)c1ccc(OCCOc2ccc3ccccc3c2)cc1F` yielded a melting point of 144 to 146 °C. With `CC(CSC(=O)c1ccccc1)C(=O)N1C(C(=O)O)CC2CCCCC21` (centres undefined) the figure was 184 to 186 °C; with `O=c1[nH]c2c3ccccc3ccc2n(Cc2ccccc2)c1=O`, 308 °C. To `COC(=O)C1(C(C[N+](=O)[O-])c2ccccc2)CCc2ccccc2C1=O` (centres undefined) belongs 101 to 103 °C; to `CC1C(c2ncc(Cl)cc2F)=NN(C)CS1=S` (centres undefined), 107 to 112 °C; to `COc1ccc(OC2OC(COCc3ccccc3)C(OCc3ccccc3)C(O)C2OCc2ccccc2)cc1` (centres undefined), 84 to 86 °C. With `CNc1cccc([N+](=O)[O-])c1C#N` the figure was 203 to 206 °C; with `OC(CCc1ccccc1)c1cnc2sc3c(n12)CCC3` (centres undefined), 117 to 118 °C. In turn, `CC(C)(C)CC(NC(=O)c1cccc(Cl)c1)Nc1c(Nc2cccnc2)c(=O)c1=O` (centres undefined) gave a melting point of 238 to 239 °C.

Take `CC(=O)Nc1ccc(Br)c2c1CCN(C(C)=O)C2`: the melting point was 179 to 181 °C. With `O=C(O)c1c[nH]c(=O)n(-c2ccccc2S)c1=O` the figure was 254 to 255 °C; with `CC(=O)c1nc(-c2ccccn2)[nH]c1C`, 145 to 147 °C; with `CC1(C)CCC(O)(c2ccc(=O)[nH]c2)CC1`, 210 to 211 °C. As to `CC(C)n1c(/C=C/C=O)c(-c2ccc(F)cc2)c2ccccc2c1=O`, the melting point was in the range of 159 to 161 °C. Turning to `CCn1cc(-c2cccc(C(F)(F)F)c2)c(=O)n1-c1ccccc1`, the melting point was 156 to 157 °C. To `O=C1C(=O)c2c(nc3ccccn23)-c2cc([N+](=O)[O-])ccc21` belongs above 300 °C; to `CC(C)Oc1cccc(NC(=O)NCc2c(-c3ccccc3)c3cc(Cl)ccc3n2C)c1`, 218 to 220 °C. As to `CN(CP(=O)(O)O)C1CCS(=O)(=O)C1` (centres undefined), the melting point was in the range of 222 to 225 °C. To `CNC(=O)OC1Oc2ccc(OS(C)(=O)=O)cc2C1(C)C` (centres undefined) belongs 126 to 127 °C; to `N#Cc1cccc(NC(=O)c2ccc3ccccc3c2)c1`, 138 to 140 °C; to `COc1ccc(CO)cc1OCc1nc(-c2ccccc2)oc1C`, 144 to 145 °C. The compound `c1ccc(COCC2c3ccccc3-c3ccccc32)cc1` had a melting point of 69.5 to 70 °C. To `CS(=O)(=O)c1ccc(-n2nc(C(F)(F)F)cc2-c2ccc(-c3cc4ccccc4o3)cc2)cc1` belongs 137 to 138 °C; to `O=[N+]([O-])c1cnc2cccnc2c1NCCOc1ccccc1`, 107 to 108 °C; to `O=C(O)COc1cc2c(c(Cl)c1Cl)C(=O)C(c1ccccc1)(C1CCCC1)C2` (centres undefined), 184 to 186 °C. In turn, `CCOC(=O)c1cnn(-c2ccc(OCC(C)CC)c(C#N)c2)c1` (centres undefined) yielded a melting point of 104 °C. As to `CN1C(=O)C(NC(=O)Nc2ccc(F)cc2)C(=O)N(C23CC4CC(CC(C4)C2)C3)c2ccccc21` (centres undefined), the melting point lay within 239 to 241 °C. As to `Cc1ccc(S(=O)(=O)OC[C@H]2OC(=O)N[C@H]2Cc2ccccc2)cc1`, the melting point is 149 to 150 °C.

Take `COc1cc(C(=O)O)cc2c1C(=O)c1ccccc1CC2`: the melting point fell in the range of 222 to 227 °C. With `Nc1n[nH]cc1-c1ccc(Cc2ccccc2)cc1` the figure was 127 to 130 °C. For the compound `COc1cccc(OC)c1C(=O)P(=O)(c1ccccc1)c1ccccc1`, the melting point was 124 to 126 °C. To `COc1cc2c(cc1Nc1ncc(Cl)c(Nc3ccc(N(C)C)cc3OC)n1)CCN(CC(=O)N1CCN(C)CC1)CC2` belongs 145 °C; to `COC(=O)Cc1ccccc1NC(=S)NCN`, 149 to 150 °C; to `CC(=O)OC1CSC(Oc2cncc(S(=O)(=O)c3ccccc3)c2)C(OC(C)=O)C1OC(C)=O` (centres undefined), 97 to 99 °C. With `CCCc1c(OCCCC#CC(=O)O)ccc(C(C)=O)c1O` the figure was 115 to 116 °C. As for `CCOC(=O)c1cn(C2CC2)c2c(C#N)c(F)c(F)cc2c1=O`, the melting point lay in the range of 209 to 211 °C. Take `CCN1c2ccccc2NC(=O)c2cccnc21`: the melting point lay in the range of 210 to 220 °C. With `COc1ccc(-c2cc(C(F)F)nn2-c2ccc(S(N)(=O)=O)cc2)cc1` the figure was 133 to 135 °C; with `CC(=NO)c1ncc(C)nc1C`, 85 to 89 °C. With `C[C@@H](n1cnc2c(cnn2-c2ccc(F)cc2)c1=O)[C@](O)(Cn1cncn1)c1ccc(F)cc1F` the figure was 217 to 218 °C. Compound `Cc1ccc(S(=O)(=O)NC(=O)NC2N=C(c3ccccc3)c3ccccc3N(C)C2=O)cc1` (centres undefined) gave a melting point of 244 to 246 °C.

Consider `O=C(NC1CCN(CCCOc2ccc3c4c(c(=O)oc3c2)CCC4)CC1)c1cccnc1`, for which the melting point lay in the range of 199 to 200 °C.

`Cc1ccc(-c2csc(-c3ccc(C(=O)O)cc3)n2)cc1C`: the melting point is 261 to 262 °C. `Cn1c(Cl)c(C#N)c2ccccc21` gave a melting point of 112 to 114 °C. To `CC(C)C(=O)Nc1ccc(C(=O)Nc2ccccc2[N+](=O)[O-])cc1` belongs 238 °C. In turn, `CC(=O)NC1=C(N)C(=O)c2ccccc2C1=O` showed a melting point of 233 to 234 °C.

For `O=c1c2cccnc2c(-c2cccc(Cl)c2)cn1CC1CCCC1`, the melting point was 122 to 124 °C.

Compound `Cn1c(COc2ccc(CC3SC(=O)NC3=O)cc2)nc2ccc(Oc3ccc(NC(=S)NC4CCCCC4)cc3)cc21` (centres undefined) registered a melting point of 173 to 174 °C. To `CCOC(=O)C1=C(C)Nc2n[nH]cc2C1c1ccccc1C(F)(F)F` (centres undefined) belongs 259 to 262 °C. For `CCOC(=O)CCCOc1ccccc1O`, the melting point was 37.2 to 38.4 °C. The compound `Cc1nnc2cc(-c3ccncc3)ccn12` registered a melting point of 223 to 226 °C. With `Cc1c(C=NO)c2cc(Cl)ccc2n1-c1ccc(O)cc1` the figure was 212 to 213 °C. `COCc1cc(-c2ncc3[nH]c4ccc(Cl)c(Cc5ccc(Cl)cc5)c4c3c2COC)no1`: the melting point fell in the range of 198 to 200 °C. For `COc1ccc(Cn2c(=O)cc(-c3nccn3C)c3cnc(SC)nc32)cc1Cl`, the melting point was 218 to 220 °C. Compound `Cc1ccc(S(=O)(=O)CC(=O)C(C)(C)C)cc1` yielded a melting point of 119 to 122 °C. With `CCCCCCCCCCNC(=O)c1ccc(C(=O)NCCCCCCCCCC)c(N(CC(=O)O)CC(=O)O)c1` the figure was 135 to 136 °C.
